ChEMBL document CHEMBL1201862, “PubChem BioAssay data set” (2004)
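Where inhibition never reached the appropriate level, the endpoint shown equals the highest concentration tested. Otherwise, values were interpolated linearly from a five-concentration, 48-hour dose response in 96-well plates. GI50 is the concentration that inhibits growth by half.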 Activity calls are given as the source filed them. Rule as the data show it: active = GI50 up to about 1.1 µM and inactive = higher.

Experiments:
Test in all cases: growth of human tumour cells (NCI), 48 h
M19-MEL = tested on: M19-MEL
OVCAR-5 = tested on: OVCAR-5
NCI-H460 = tested on: NCI-H460
SF-268 = tested on: SF-268
HOP-62 = tested on: HOP-62
SK-MEL-5 = tested on: SK-MEL-5
NCI-H23 = tested on: NCI-H23
DMS-273 = tested on: DMS-273
ACHN = tested on: ACHN
SW-620 = tested on: SW-620
SK-OV-3 = tested on: SK-OV-3
UACC-62 = tested on: UACC-62
K562 = tested on: K562
DLD-1 = tested on: DLD-1
HT-29 = tested on: HT-29
U-251 = tested on: U-251
RXF 393 = tested on: RXF 393
TK-10 = tested on: TK-10
SN12C = tested on: SN12C
M14 = tested on: M14
HCT-15 = tested on: HCT-15
MOLT-4 = tested on: MOLT-4
DMS-114 = tested on: DMS-114
COLO 205 = tested on: COLO 205
SNB-19 = tested on: SNB-19
HCT-116 = tested on: HCT-116
HL-60 = tested on: HL-60
OVCAR-3 = tested on: OVCAR-3
SF-295 = tested on: SF-295
786-0 = tested on: 786-0
KM12 = tested on: KM12
HOP-18 = tested on: HOP-18
CCRF-CEM = tested on: CCRF-CEM
SNB-75 = tested on: SNB-75
SK-MEL-2 = tested on: SK-MEL-2
UACC-257 = tested on: UACC-257
HCC 2998 = tested on: HCC 2998
OVCAR-8 = tested on: OVCAR-8
A498 = tested on: A498
SNB-78 = tested on: SNB-78
CAKI-1 = tested on: CAKI-1
SK-MEL-28 = tested on: SK-MEL-28
OVCAR-4 = tested on: OVCAR-4
HOP-92 = tested on: HOP-92
RPMI-8226 = tested on: RPMI-8226
A549 = tested on: A549
SF-539 = tested on: SF-539
RXF 631 = tested on: RXF 631
NCI-H226 = tested on: NCI-H226
IGROV-1 = tested on: IGROV-1
UO-31 = tested on: UO-31
EKVX = tested on: EKVX
LOX IMVI = tested on: LOX IMVI
Malme-3M = tested on: Malme-3M
XF498 = tested on: XF498
SR = tested on: SR
LXFL 529 = tested on: LXFL 529
KM-20L2 = tested on: KM-20L2
NCI-H522 = tested on: NCI-H522

In the case of CN(C)CCNC(=O)c1cccc2[nH]c(-c3ccccc3)nc12, the GI50 (M19-MEL) is reported as 19.4 µM (inactive), the GI50 (OVCAR-5) is reported as 15.7 µM (inactive) and the GI50 (NCI-H460) is reported as 15.4 µM (inactive). For the same compound, the GI50 (SF-268) was 18.5 µM (inactive), the GI50 (HOP-62) was 22.3 µM (inactive) and the GI50 (SK-MEL-5) was 15.1 µM (inactive). For the same compound, the GI50 (NCI-H23) was 17.4 µM (inactive), the GI50 (DMS-273) was 14.5 µM (inactive) and the GI50 (ACHN) was 15.3 µM (inactive). The GI50 (SW-620) was 13.1 µM (inactive), the GI50 (SK-OV-3) was 17.3 µM (inactive) and the GI50 (UACC-62) was 18.5 µM (inactive). The GI50 (K562) was 26.4 µM (inactive), the GI50 (DLD-1) was 16.3 µM (inactive) and the GI50 (HT-29) was 19.8 µM (inactive). The GI50 (U-251) was 25.4 µM (inactive), the GI50 (RXF 393) was 17.2 µM (inactive) and the GI50 (TK-10) was 18.5 µM (inactive). For the same compound, the GI50 (SN12C) was 16.7 µM (inactive), the GI50 (M14) was 17.3 µM (inactive) and the GI50 (HCT-15) was 15.8 µM. For the same compound, the GI50 (MOLT-4) was 4.91 µM (inactive), the GI50 (DMS-114) was 17.3 µM (inactive) and the GI50 (COLO 205) was 11.6 µM (inactive). The GI50 (SNB-19) was 32.5 µM (inactive), the GI50 (HCT-116) was 9.73 µM (inactive) and the GI50 (HL-60) was 21.7 µM (inactive). For the same compound, the GI50 (OVCAR-3) was 21.6 µM (inactive), the GI50 (SF-295) was 25.2 µM (inactive) and the GI50 (786-0) was 36.3 µM (inactive). For the same compound, the GI50 (KM12) was 22.4 µM (inactive), the GI50 (HOP-18) was 11.9 µM (inactive) and the GI50 (CCRF-CEM) was 15.9 µM (inactive). The GI50 (SNB-75) was 37.8 µM (inactive), the GI50 (SK-MEL-2) was 18.5 µM (inactive) and the GI50 (UACC-257) was 16.9 µM (inactive). For the same compound, the GI50 (HCC 2998) was 15.3 µM (inactive), the GI50 (OVCAR-8) was > 10 µM (inactive) and the GI50 (A498) was 13.1 µM (inactive). The GI50 (SNB-78) was 32.1 µM (inactive), the GI50 (CAKI-1) was 24.7 µM (inactive) and the GI50 (SK-MEL-28) was 18.3 µM (inactive). For the same compound, the GI50 (OVCAR-4) was 28.4 µM (inactive), the GI50 (HOP-92) was 20.3 µM (inactive) and the GI50 (RPMI-8226) was 32.1 µM (inactive). For the same compound, the GI50 (A549) was 16.3 µM (inactive), the GI50 (SF-539) was 12.2 µM (inactive) and the GI50 (RXF 631) was 24.4 µM (inactive). The GI50 (NCI-H226) was 16.4 µM (inactive), the GI50 (IGROV-1) was 21.7 µM (inactive) and the GI50 (UO-31) was 12.8 µM (inactive). The GI50 (EKVX) was 23.9 µM (inactive) and the GI50 (LOX IMVI) was 15.6 µM (inactive).
With CCOC(=O)[C@H]1Nc2ccccc2C2c3ccccc3CC21 (stereo partly specified) the GI50 (M19-MEL) was 74.3 µM (inactive), the GI50 (OVCAR-5) was 31.7 µM (inactive) and the GI50 (NCI-H460) was 38.6 µM (inactive). The GI50 (SF-268) was > 100 µM (inactive), the GI50 (HOP-62) was > 100 µM (inactive) and the GI50 (Malme-3M) was > 100 µM (inactive). The GI50 (SK-MEL-5) was 21.8 µM (inactive), the GI50 (NCI-H23) was 79.6 µM (inactive) and the GI50 (DMS-273) was 74 µM (inactive). The GI50 (ACHN) was > 100 µM (inactive), the GI50 (SW-620) was 36.8 µM (inactive) and the GI50 (UACC-62) was 53.3 µM (inactive). For the same compound, the GI50 (K562) was 38.9 µM (inactive), the GI50 (DLD-1) was 51.4 µM (inactive) and the GI50 (HT-29) was 19 µM (inactive). The GI50 (U-251) was > 100 µM (inactive), the GI50 (RXF 393) was 3.3 µM (inactive) and the GI50 (TK-10) was > 100 µM (inactive). The GI50 (SN12C) was 29.4 µM (inactive), the GI50 (M14) was > 100 µM (inactive) and the GI50 (HCT-15) was 49 µM. The GI50 (XF498) was > 100 µM (inactive), the GI50 (MOLT-4) was 24.4 µM (inactive) and the GI50 (DMS-114) was 88.1 µM (inactive). For the same compound, the GI50 (COLO 205) was 64.4 µM (inactive), the GI50 (SNB-19) was > 100 µM (inactive) and the GI50 (HCT-116) was 41.5 µM (inactive). For the same compound, the GI50 (OVCAR-3) was 29.6 µM (inactive), the GI50 (SF-295) was 49 µM (inactive) and the GI50 (786-0) was > 100 µM (inactive). The GI50 (KM12) was 71 µM (inactive), the GI50 (SNB-75) was 39.5 µM (inactive) and the GI50 (SK-MEL-2) was > 100 µM (inactive). The GI50 (UACC-257) was 22 µM (inactive), the GI50 (HCC 2998) was 48.3 µM (inactive) and the GI50 (OVCAR-8) was 48.5 µM (inactive). For the same compound, the GI50 (A498) was 24.9 µM (inactive), the GI50 (SNB-78) was > 100 µM (inactive) and the GI50 (CAKI-1) was > 100 µM (inactive). For the same compound, the GI50 (SK-MEL-28) was 34.2 µM (inactive), the GI50 (SR) was 27.4 µM (inactive) and the GI50 (OVCAR-4) was 38.2 µM (inactive). For the same compound, the GI50 (LXFL 529) was 41.6 µM (inactive), the GI50 (RPMI-8226) was 37.9 µM (inactive) and the GI50 (A549) was 78.3 µM (inactive). For the same compound, the GI50 (SF-539) was > 100 µM (inactive), the GI50 (RXF 631) was > 100 µM (inactive) and the GI50 (NCI-H226) was > 100 µM (inactive). The GI50 (KM-20L2) was 39.4 µM (inactive), the GI50 (IGROV-1) was > 100 µM (inactive) and the GI50 (NCI-H522) was 16.4 µM (inactive). The GI50 (UO-31) was 68.4 µM (inactive) and the GI50 (LOX IMVI) was > 100 µM (inactive).
